{"source": "patent US20010036664A1", "about": "“L-leucyl-L-leucine methyl ester treatment of donor lypmhocyte infusions in bone marrow transplant patients” (priority 2000, published 2001)", "origin": "cited, not measured here", "key": {"GVHD-inducing T cells": {"tested_on": "GVHD-inducing T cells", "conditions": "stem cell toxicity occurs at this concentration"}, "GVHD": {"tested_on": "GVHD", "conditions": "ex vivo treatment of bone marrow grafts; multiple murine models"}}}
{"smiles": "COC(=O)[C@H](CC(C)C)NC(=O)[C@@H](N)CC(C)C", "note": "[LLME, L-leucyl-L-leucine methyl ester]", "values": [{"measurement": "concentrations necessary to purge GVHD-inducing T cells", "setting": "GVHD-inducing T cells", "value": 500, "unit": "µM"}, {"measurement": "prevention of GVHD", "setting": "GVHD", "value": "completely prevent GVHD"}]}
